Measurements as given in patent US12521371B2, “Modulators of alpha-synuclein” (KAINOS MEDICINE INC., priority 2017, dated 2026).
Values belong to the compound of their own block, whether it stands above or below them.

Tests used:
alpha-synuclein = assay: Alpha-synuclein level in SH-SY5Y cells co-transfected with FAF1-Flag and alpha-synuclein-GFP, Western blot; format: cell-based
Method: To confirm if FAF1 inhibitor decreases the alpha-synuclein level in cells, SH-SY5Y cells are treated with the FAF1 inhibitor KM-819 (KR-88493, U.S. Pat. No. 7,939,550, Yoo S E et al. 2016). Cells are co-transfected with genes encoding FAF1 tagged with Flag and alpha-synuclein tagged with GFP. The alpha-synuclein level is measured by Western blot of cell extracts using anti-GFP antibody. The FAF1 level is measured by Western blot of cell extracts using anti-Flag antibody. Clearly, the level of alpha-synuclein is decreased upon treatment with FAF1 inhibitor (FIG. 11). […] This is much higher efficacy compared to the apoptosis inhibition activity measured in the prior art, 70% inhibition at 10 uM. Note that FAF1 level itself is not changed by treatment with FAF1 inhibitor.

FAF1-Caspase 8 complex = biological target: T1, FAF1-Caspase 8 complex (Homo sapiens, UniProt Q9UNN5); assay: Immunoprecipitation assay of FAF1-Caspase 8 complex formation; format: biochemical
T1 construct: host or cells: cell extracts
T1 sequence (Q9UNN5 1-650): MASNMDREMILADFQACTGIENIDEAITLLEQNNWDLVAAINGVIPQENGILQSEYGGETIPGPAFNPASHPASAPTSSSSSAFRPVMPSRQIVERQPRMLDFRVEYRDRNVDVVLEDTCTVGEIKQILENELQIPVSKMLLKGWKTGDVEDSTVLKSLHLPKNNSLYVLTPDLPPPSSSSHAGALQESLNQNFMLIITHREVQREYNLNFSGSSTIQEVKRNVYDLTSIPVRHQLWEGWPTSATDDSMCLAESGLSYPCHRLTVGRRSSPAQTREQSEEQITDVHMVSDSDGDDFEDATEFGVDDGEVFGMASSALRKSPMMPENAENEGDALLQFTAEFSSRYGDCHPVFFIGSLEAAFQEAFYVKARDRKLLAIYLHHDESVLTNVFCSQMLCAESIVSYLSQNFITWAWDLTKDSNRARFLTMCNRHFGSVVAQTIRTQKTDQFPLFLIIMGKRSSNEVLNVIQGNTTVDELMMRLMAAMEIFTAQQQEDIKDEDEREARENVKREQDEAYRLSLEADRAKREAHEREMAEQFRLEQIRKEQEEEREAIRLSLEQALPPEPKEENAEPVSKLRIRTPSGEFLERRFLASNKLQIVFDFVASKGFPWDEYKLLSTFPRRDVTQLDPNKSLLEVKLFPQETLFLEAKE
Text: (§1) FAF1 activates apoptotic stress by various stimuli through activation of caspase cascade and necrosis as described (Yu C et al. 2016). The direct targets of FAF1 are caspase 8 and JNK in these two pathways, respectively. And the step of this activation is forming these complexes followed by activation of the downstream targets.
(§2) The inhibition of the complex formation of FAF1-Caspase 8 and FAF1-JNK by KM-819 is confirmed by the usual immunoprecipitation assays using a caspase8 DED antibody and a JNK antibody, and bound and precipitated FAF1 are measured by Western blot using anti-FAF1 antibody. Clearly, KM-819 inhibits the complex formation effectively, about 80% inhibition at 0.1 uM (FIG. 8).

[1] = tested on: deoxy-glucose induced hypoxia-mediated apoptosis; settings: at 10 uM; U.S. Pat. No. 7,939,550; cited from earlier work
Caspase 8 = Caspase 8 activation measured as Caspase 3 cleavage, Western blot; format: cell-based; settings: cleavage of Caspase 3
Method: (§3) The inhibition of activation of Caspase 8 and JNK by KM-819 is confirmed by assaying the cleavage of the Caspase 8 substrate, Caspase 3, and autophosphorylation of JNK, respectively (FIG. 9). The cells are treated with different concentration of KM-819 as indicated and the levels of cleaved Caspase 3 and autophosphorylated form of JNK are measured by Western blot using anti-Caspase 3 antibody and anti-phospho-JNK antibody, respectively. Clearly, KM-819 inhibits the activity of Caspase 8 and JNK activation (FIG. 9).

LC3 and p62 = assay: Autophagy promotion: LC3 and p62 levels in SH-SY5Y cells overexpressing FAF1, Western blot; format: cell-based
Method: EC50 for autophagy promotion of KM-819 is 1 nM.

[2] = tested on: human alpha-synuclein mutant A53T; assay: Alpha-synuclein level in brain tissues of alpha-synuclein A53T transgenic mice after oral KM-819, Western blot; format: in vivo; settings: oral 1, 5, 10 mg/kg/day for 9 days, A53T Tg mice
JNK = JNK activation measured as JNK autophosphorylation, Western blot; format: cell-based; settings: autophosphorylation of JNK
Method: as §3

FAF1-JNK complex = biological target: T2, FAF1-JNK complex (Homo sapiens, UniProt Q9UNN5); assay: Immunoprecipitation assay of FAF1-JNK complex formation; format: biochemical
T2 construct: host or cells: cell extracts
T2 sequence (Q9UNN5 1-650): T1 sequence (Q9UNN5 1-650)
Text: as §1, §2

FAF1 = FAF1 siRNA treatment of SH-SY5Y cells cotransfected with the alpha-synuclein gene, Western blot; format: cell-based
Text: FAF1 expression is attenuated by treating SH-SY5Y cells with siRNA (sequence: GUGUUGUGGCACAAACCAU) and reduction in FAF level is confirmed by Western blot of cell extracts using anti-FAF1 antibody. The cells are cotransfected with the alpha-synuclein gene. The level of alpha-synuclein is monitored by Western blot using anti-alpha-synuclein antibody. Clearly, the level of alpha-synuclein is decreased with FAF1 siRNA treatment (FIG. 5).

EC50 (alpha-synuclein; Homo sapiens, SH-SY5Y, as stated in description b51, read-out: EC50 for decreasing the amount of alpha-synuclein in cells): 20 nM
IC50 (alpha-synuclein; Homo sapiens, SH-SY5Y cells, FAF1-Flag and alpha-synuclein-GFP, read-out: IC50 for decrease of alpha-synuclein level): 20 nM
inhibition at 0.1 µM (FAF1-Caspase 8 complex): ~80%
IC50 (Caspase 8): 730 nM
EC50 (LC3 and p62; Homo sapiens, read-out: EC50 for autophagy promotion (modulating LC-3 and p62 levels)): 1 nM
IC50 (JNK): 250 nM
inhibition at 0.1 µM (FAF1-JNK complex): ~80%
Compound: O=C(CSc1ccc(Br)cc1)Nc1cn(CCc2ccccc2)nc1C(=O)O [KM-819, 4-[2-(4-bromo-phenylsulfanyl)-acetylamino]-1-phenethyl-1H-pyrazole-3-carboxylic acid]
inhibition at 10 µM (alpha-synuclein; Homo sapiens, SH-SY5Y, at 10 uM): > 95%
FAF1 level (alpha-synuclein; SH-SY5Y cells, anti-Flag Western blot): not changed
inhibition of apoptosis [1]: 70%
LC3 level (LC3 and p62): increases
p62 protein level (LC3 and p62): decreases
FAF1 level in midbrain [2]: not changed
level of S129 phosphorylated alpha-synuclein in midbrain [2]: decreased
level of alpha-synuclein in cerebellum [2]: decreased
level of alpha-synuclein in cortex [2]: decreased
level of alpha-synuclein in hippocampus [2]: decreased
level of alpha-synuclein in midbrain [2]: decreased
level of alpha-synuclein in striatum [2]: decreased

Compound: FAF1 siRNA: siRNA (sequence: GUGUUGUGGCACAAACCAU) that attenuates FAF1 expression in SH-SY5Y cells (chemistry not given here)
level of alpha-synuclein (FAF1; SH-SY5Y cells cotransfected with alpha-synuclein gene): decreased
FAF1 expression (FAF1; SH-SY5Y cells, anti-FAF1 Western blot): attenuated
